Tests used:
Experiment in all cases: MIC of carbapenems with or without DMSA
[1] = tested on: E. coli 0404018; format: cell-based; conditions: E. coli 0404018, VIM-1 + CMY-6; no DMSA; unit assumed
Description: (§1) Minimum inhibitory concentrations (MICs) of carbapenems were determined in-vitro with strains (reference and clinical) producing the three main types of class B carbapenemases which are IMP, VIM and NDM, with or without EDTA and DMSA.
(§2) MICs of imipenem was determined for E. coli TOP10 pCR2.1-(PNDM-1-blaNDM-1-bleMBL) in the presence of 0, 0.01, 0.1 or 1 mg/ml of Ca-EDTA or DMSA by using the broth microdilution method in zinc-complemented M9CA minimum medium (SD7025, Euromedex, France).
(§3) A 100 mM DMSA stock solution (Sigma Aldrich, France) (pH 5.0) was prepared in 0.2 M NaOH as recommended (Maiorino et al. 1990) and pH was neutralized to pH 7.0 with NaHCO3 Na2Ca-EDTA (Sigma Aldrich, France) dissolved in water.
(§4) The strains were as follows: VIM producers (n=10), IMP producers (n=9), NDM-1 producers (n=10). The selected concentration of DMSA was 10-fold (0.3 mM) and 100-fold (3 mM) that of the human peak serum concentration after oral administration (Asiedu et al;, 1995), and that of Ca-EDTA was assayed at the fixed concentration of 0.2 mM (Table 2). […]

[2] = tested on: E. coli FEK; format: cell-based; conditions: NDM-4 + NDM-4 + OXA-1 + CTX-M-15, no DMSA, unit assumed
Description: as §1, §2, §3, §4

[3] = tested on: E. coli RIC; format: cell-based; conditions: NDM-1 + CMY-16 + OXA-1 + OXA-10, no DMSA, unit assumed
Description: as §1, §2, §3, §4

[4] = tested on: E. cloacae KOW3; format: cell-based; conditions: E. cloacae KOW3, VIM-1 + CTX-M-15+ TEM-1 + SHV-31; no DMSA; unit assumed
Description: as §1, §2, §3, §4

[5] = tested on: E. cloacae 1008085; format: cell-based; conditions: E. cloacae 1008085, IMP-1; no DMSA; unit assumed
Description: as §1, §2, §3, §4

[6] = tested on: E. coli ALL; format: cell-based; conditions: NDM-1 + TEM-1 +CTX-M-15+OXA-1 + OXA-2, no DMSA, unit assumed
Description: as §1, §2, §3, §4

[7] = tested on: E. cloacae 396715; format: cell-based; conditions: E. cloacae 396715, VIM-1; no DMSA; unit assumed
Description: as §1, §2, §3, §4

[8] = tested on: E. coli BOUN; format: cell-based; conditions: NDM-4 + OXA-1, no DMSA, unit assumed
Description: as §1, §2, §3, §4

[9] = tested on: E. coli 1108013; format: cell-based; conditions: E. coli 1108013, IMP-1 + TEM-1; no DMSA; unit assumed
Description: as §1, §2, §3, §4

[10] = tested on: E. cloacae TAW; format: cell-based; conditions: IMP-8, no DMSA, unit assumed
Description: as §1, §2, §3, §4

[11] = tested on: E. cloacae 1008183; format: cell-based; conditions: E. cloacae 1008183, IMP-1; no DMSA; unit assumed
Description: as §1, §2, §3, §4

[12] = tested on: E. coli IBIS; format: cell-based; conditions: VIM-4, no DMSA, unit assumed
Description: as §1, §2, §3, §4

[13] = tested on: E. cloacae 1008186; format: cell-based; conditions: E. cloacae 1008186, IMP-1; no DMSA; unit assumed
Description: as §1, §2, §3, §4

[14] = tested on: C. freundii MIG; format: cell-based; conditions: VIM-2 + TEM-1 +OXA-9 + OXA-10, no DMSA, unit assumed
Description: as §1, §2, §3, §4

[15] = tested on: E. coli 162; format: cell-based; conditions: E. coli 162, NDM-5 + TEM-1 +CTX-M-15; no DMSA; unit assumed
Description: as §1, §2, §3, §4

[16] = tested on: E. coli 1008077; format: cell-based; conditions: E. coli 1008077, VIM-1 + TEM-3; no DMSA; unit assumed
Description: as §1, §2, §3, §4

[17] = tested on: E. coli IR5; format: cell-based; conditions: E. coli IR5, NDM-1 + TEM-1 +CTX-M-15; no DMSA; unit assumed
Description: as §1, §2, §3, §4

[18] = tested on: E. coli COUP; format: cell-based; conditions: NDM-7 + OXA-1 +CTX-M-15, no DMSA, unit assumed
Description: as §1, §2, §3, §4

[19] = tested on: E. coli JAP; format: cell-based; conditions: IMP-1, no DMSA, unit assumed
Description: as §1, §2, §3, §4

[20] = tested on: E. coli 405; format: cell-based; conditions: E. coli 405, NDM-5 + TEM-1 +CTX-M-15; no DMSA; unit assumed
Description: as §1, §2, §3, §4

[21] = tested on: E. coli MAD; format: cell-based; conditions: VIM-1 + CTX-M-3, no DMSA, unit assumed
Description: as §1, §2, §3, §4

[22] = tested on: E. cloacae 1008029; format: cell-based; conditions: E. cloacae 1008029, VIM-1 + CTX-M-3; no DMSA; unit assumed
Description: as §1, §2, §3, §4

[23] = tested on: E. coli DIH; format: cell-based; conditions: VIM-19, no DMSA, unit assumed
Description: as §1, §2, §3, §4

[24] = tested on: K.p. 0709124; format: cell-based, K. pneumoniae; conditions: K.p. 0709124, IMP-1b + TEM-15; no DMSA; unit assumed
Description: as §1, §2, §3, §4

[25] = tested on: K.p. ROUM; format: cell-based, K. pneumoniae; conditions: VIM, no DMSA, unit assumed
Description: as §1, §2, §3, §4

[26] = tested on: K.p. KIE; format: cell-based, K. pneumoniae; conditions: NDM-1 + SHV-38 + CMY-16 + OXA-10, no DMSA, unit assumed
Description: as §1, §2, §3, §4

[27] = tested on: K.p. OMA1; format: cell-based, K. pneumoniae; conditions: K.p. OMA1, NDM-1 + TEM-1 +CTX-M-15+ SHV-28 + OXA-1 + OXA-9; no DMSA; unit assumed
Description: as §1, §2, §3, §4

[28] = tested on: K.p. TAW; format: cell-based, K. pneumoniae; conditions: IMP-8 + SHV-5, no DMSA, unit assumed
Description: as §1, §2, §3, §4

[29] = tested on: K.p. 6852; format: cell-based, K. pneumoniae; conditions: K.p. 6852, IMP-1 + SHV-5; no DMSA; unit assumed
Description: as §1, §2, §3, §4

Measured: MIC

C[C@@H](O)[C@H]1C(=O)N2C(C(=O)O)=C(S[C@@H]3CN[C@H](C(=O)Nc4cccc(C(=O)O)c4)C3)[C@H](C)[C@H]12 [ETP, ertapenem]
16 µg/mL: [6] | [8]
32 µg/mL: [9] | [13] | [17] | [18] | [24]
0.5 µg/mL: [19] | [28]
0.25 µg/mL: [21]
4 µg/mL: [1] | [10] | [26]
8 µg/mL: [3] | [5] | [11] | [23]
2 µg/mL: [7] | [12] | [14]
> 32 µg/mL: all other assays above

Source: patent EP2979694B1, “Dimercaptosuccinic acid for the treatment of multidrug resistant bacterial infections” (priority 2014, dated 2016)
